Measured values published in BindingDB's records for doi:10.1016/j.chembiol.2016.12.011 (Saarland University, 2017).

Molecular target: Ezrin (Homo sapiens, UniProt P15311)
Assay: SPR Assay
Details: pH 5.5; 25 °C
Procedure: Recombinant ezrin (Hypermol) was diluted to […] in sodium acetate buffer (pH 5.5, 10 mM) immobilized for 350 s on a CM5 Sensor Chip (Biacore) by standard amine coupling to yield around 10,000 response units. The reference flow cell was prepared exactly as the ligand flow cell, although sodium acetate buffer only (pH 5.5, 10 mM) was used instead of recombinant ezrin. Binding interactions were monitored at 25 °C with a flow rate of […] in HBSEP/1% DMSO as running buffer. Disorazole A was injected at […]. Disorazole Z was injected at […]. The contact time for each compound was 120 s and the dissociation time 500 s. To rule out non-specific binding, a negative control protein was immobilized on a CM5 Sensor Chip (Biacore) by standard amine coupling: BSA (Sigma) was diluted to […] in sodium acetate buffer (pH 4.5, 10 mM) and immobilized for 90 s to yield around 5,000 response units. The reference flow cell was prepared with sodium acetate buffer (pH 4.5).

Chain of Ezrin (P15311 whole entry): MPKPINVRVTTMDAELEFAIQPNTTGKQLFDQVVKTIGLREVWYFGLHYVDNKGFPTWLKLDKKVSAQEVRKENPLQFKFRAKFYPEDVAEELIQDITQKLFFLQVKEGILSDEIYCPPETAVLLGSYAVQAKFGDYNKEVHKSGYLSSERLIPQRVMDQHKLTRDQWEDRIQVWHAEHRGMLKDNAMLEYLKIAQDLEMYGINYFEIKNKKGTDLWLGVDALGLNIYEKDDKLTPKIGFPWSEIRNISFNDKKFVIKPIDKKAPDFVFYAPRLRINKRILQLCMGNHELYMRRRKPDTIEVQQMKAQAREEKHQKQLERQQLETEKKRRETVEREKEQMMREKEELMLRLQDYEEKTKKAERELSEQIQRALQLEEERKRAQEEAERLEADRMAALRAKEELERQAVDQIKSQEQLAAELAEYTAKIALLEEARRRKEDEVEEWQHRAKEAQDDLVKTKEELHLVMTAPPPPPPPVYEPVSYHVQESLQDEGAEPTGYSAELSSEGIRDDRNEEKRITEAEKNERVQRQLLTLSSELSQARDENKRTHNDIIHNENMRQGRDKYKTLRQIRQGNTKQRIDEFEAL

SMILES | Kd
C/C=C/[C@H](O)C(C)(C)[C@@H]1CCC[C@H]2O[C@H]2CC[C@@H]2O[C@@H]2c2nc(co2)C(=O)O[C@H](C(C)(C)[C@@H](O)/C=C/C)C\C=C/C(C)=C\C=C/[C@H](OC)Cc2nc(co2)C(=O)O1 [Disorazole A] | 22 µM
C/C=C/[C@H](O)C(C)(C(=O)OC)[C@@H]1C\C=C/C=C/C=C/c2nc(co2)C(=O)O[C@H](C(C)(C(=O)OC)[C@@H](O)/C=C/C)C\C=C/C=C/C=C/c2nc(co2)C(=O)O1 (some centres not stated) [Disorazole Z] | 74.9 µM
